Holding throughout (assay): growth of human tumour cells (NCI), 48 h
In assay [1] the test system is 786-0 renal.
Assay [2] relates to CAKI-1 renal.
Assay [3] deals with COLO 205 colon.
Assay [4] concerns HCT-15 colon.
The subject of assay [5] is M14 melanoma.
The test system of assay [6] is MCF7 breast.
The test system of assay [7] is MOLT-4 leukemia.
In assay [8] the test system is NCI-H226 lung.
Assay [9] has as its system SF-295 CNS.
In assay [10] the test system is SK-MEL-28 melanoma.
For assay [11], the system named is SNB-75 CNS.
Assay [12] has as its system TK-10 renal.
Assay [13] relates to UACC-257 melanoma.

Each structure is given as a SMILES string. Values joined by “and” are separate entries in the source; they are usually repeats but may differ in a detail not shown here. Equal entries are not always repeated.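 Protocol summary: plate cells (96-well), add compound at 5 concentrations, incubate 48 h, interpolate endpoints linearly. The concentration for 50% growth inhibition is given as GI50. At the TGI there is no net growth.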

`Cc1ccc(C(=O)O)c(CC2Cc3c(C)cccc3C2=O)c1` (stereo not given): the TGI in [1], in assay [2], in assay [3], in assay [4], in [5] and in [6] was more than 100 µM in each case. Further, the TGI in assay [7], in [8], in assay [9], in assay [10], in [11] and in [12] was more than 100 µM throughout. For the same molecule, the TGI in assay [13] was more than 100 µM.

Turning to `C/C=C\C(CC(=O)NCCc1cn(C(=O)OCc2ccccc2)c2ccccc12)CC(=O)OC` (stereo not given), the TGI in [1], in assay [2], in assay [3], in assay [4], in assay [5] and in assay [6] was more than 100 µM throughout. Besides, the TGI in [7], in [9], in [10], in [11], in assay [12] and in assay [13] was more than 100 µM throughout.

For the molecule `CN(C)c1nc(N(C)C)nc(N(C)C23CC4CC(CC(C4)C2)C3)n1`, the TGI in assay [1] was more than 100 µM; in assay [2], more than 100 µM; in assay [3], 32.7 µM; in [4] it was more than 100 µM; in [5] it was more than 100 µM; in assay [6], more than 100 µM. The TGI in assay [8] is more than 100 µM; in [9], more than 100 µM; in assay [10] it was more than 100 µM; in assay [11], 86 µM; in assay [13], more than 100 µM.

`CCOC(=O)C(=[N+]=[N-])C(=O)Nc1nn2nnnc2c2ccccc12`: the TGI in assay [1], in assay [2], in [3], in assay [5], in [6] and in assay [7] was more than 100 µM in each case. Further, the TGI in assay [8], in [9], in assay [10], in assay [11] and in assay [13] was more than 100 µM in each case.

Take `CC(=O)O[C@@H]1C[C@@]23C[C@@]24CC[C@H](OC2OCC(O)C(O)C2O)C(C)(C)[C@@H]4CC=C3[C@]2(C)C[C@@H]3OC4(C[C@@H](C)[C@@H]3[C@@]12C)OC(O)[C@@]1(C)O[C@@H]41` (stereo not given in full): the TGI is 63.1 µM in [1]; more than 100 µM in assay [2]; 44 µM in assay [3]; 96.7 µM in assay [4]; more than 100 µM in [5]; more than 100 µM in assay [6]. Also, the TGI in [8] is more than 100 µM; in [9] it was 80.6 µM; in assay [10] it was more than 100 µM; in assay [11], 58.7 µM; in assay [12] it was more than 100 µM; in assay [13], 67 µM.

As for `O=C(CCN1CCCC1)Nc1ccc2sc3ccccc3c(=O)c2n1`, the TGI stood at 17.5 µM in assay [1]; 16.7 µM in assay [2]; 16.3 µM in assay [3]; 16.8 µM in assay [4]; 17.6 µM in assay [5]; 21.3 µM in [6]. The TGI in assay [7] came to 17.7 µM; in assay [8], 29.2 µM; in assay [9], 27.8 µM; in assay [10], 19.9 µM; in assay [11], 18.2 µM; in assay [13], 17 µM.

In the case of `Cc1cc(O)c(C(C)C)cc1SC#N`, the TGI in [2] came to 28.2 µM; in assay [3], 40.5 µM; in assay [4], 39.3 µM; in assay [6], 31.6 µM; in assay [7], 25.3 µM; in assay [9] it was 31.2 µM. Also, the TGI amounted to 33.8 µM in assay [10], 22.5 µM in [11], 31.8 µM in [12] and 38.1 µM in [13].

Consider `CCc1c(Cc2cccc3ccccc23)n2c(nc1=O)SCC2OCCO` (stereo not given), for which the TGI in [1], in assay [2], in assay [3], in assay [4], in [5] and in assay [6] was more than 100 µM each time. For the same molecule, the TGI in [7], in assay [8], in [10], in assay [11], in assay [12] and in assay [13] was more than 100 µM in each case.

With `C/C(=C\c1ccccn1)c1ccccn1`, the TGI in assay [1], in [2], in assay [3], in [4], in assay [5] and in [6] was more than 100 µM each time. For the same molecule, the TGI in [7], in [9], in [10], in [11], in assay [12] and in [13] was more than 100 µM each time.

For `c1ccc(CCN2CCc3[nH]c4ccccc4c3C2)cc1`, the TGI in [1] was 31.6 µM; in assay [3], more than 10 µM; in assay [4], 46.2 µM; in assay [5], 34 µM; in assay [6] it was 40.9 µM; in [7], 70.5 µM. The TGI in [8] amounted to 71.4 µM; in [9] it was 35.2 µM; in [10], 41.8 µM; in assay [11], 68 µM; in assay [12], 51.7 µM; in [13], 30.4 µM.

Take `Clc1ccc(Cc2nc3ccccc3nc2-c2cccc(Br)c2)cc1`: the TGI was found to be 3.48 µM in assay [1]; 5.1 µM in assay [2]; 12 µM in assay [3]; 3.11 µM in assay [4]; 5.17 µM in assay [5]; 11.3 µM in assay [6]. In addition, the TGI came to 6.84 µM in [7]; 33.1 µM in [8]; 31.2 µM in assay [9]; 35.7 µM in assay [11]; 30.4 µM in assay [12]; 7.7 µM in assay [13].

Consider `N/N=C1/C2CN3CCN(C2)CC1(c1ccc([N+](=O)[O-])cc1)C3`, for which the TGI in assay [1], in assay [2], in assay [3], in [6], in assay [7] and in assay [8] was more than 100 µM throughout. Moreover, the TGI in [9], in assay [10], in assay [11], in assay [12] and in [13] was more than 100 µM in each case.

Consider `CC[N+](C)(CC)CCC(O)(c1ccccc1)c1ccccc1`, for which the TGI in assay [1], in assay [3], in assay [4], in assay [5], in assay [6] and in assay [7] was more than 100 µM in each case. The TGI in assay [8], in assay [9], in assay [10], in assay [11], in [12] and in assay [13] was more than 100 µM throughout.

On to `N#Cc1nc(CCCCCN2C(=O)c3ccccc3C2=O)oc1N`, for which the TGI in assay [1], in [2], in assay [3], in assay [4], in [5] and in assay [6] was more than 100 µM throughout. For the same molecule, the TGI in assay [7], in assay [8], in assay [9], in assay [10], in assay [12] and in assay [13] was more than 100 µM throughout.

As to `[Cl][Pt+2][Cl].[NH-]C1CCCCC1[NH-]` (stereo not given), the GI50 in assay [2] was 1.44 µM and 3.52 µM and 0.769 µM; in [4], 5.58 µM and 4.7 µM and 0.677 µM; in [9], 6.32 µM and 5.35 µM and 1.06 µM; in assay [11], 25.1 µM and 19.6 µM and 3.41 µM. The TGI was > 53 µM and > 100 µM and 18.1 µM in [2]; > 49.5 µM and > 70.4 µM and 13.6 µM in assay [3]; 35.3 µM and > 100 µM and 37.9 µM in [4]; > 37 µM and > 100 µM and 10.1 µM in [6]; > 51.2 µM and > 96.6 µM and 37.9 µM in assay [7]; more than 100 µM in [9]. Also, the TGI in assay [10] is 65.8 µM and 56.4 µM and 20.6 µM; in [11], 97.6 µM and > 77.9 µM and 71 µM; in assay [13], more than 96.6 µM.

As for `OCC1OC(n2cnc3cncnc32)C(O)C1O` (stereo not given), the TGI amounted to 2.68 µM in [2]; 1.7 µM in assay [3]; 2.08 µM in assay [4]; 2.15 µM in assay [6]; 5.29 µM in assay [7]; 3.33 µM in [8]. In addition, the TGI came to 8.32 µM in assay [9], 5.23 µM in [10], 2.15 µM in assay [11] and 3.75 µM in assay [13].

Turning to `Cc1ccc(C(C)(C)C[P+](C)(c2ccccc2)c2ccccc2)cc1`, the TGI is more than 69.2 µM in assay [2]; 18.7 µM in assay [3]; more than 100 µM in [4]; more than 81.2 µM in assay [6]; 42.7 µM in assay [7]; more than 85.3 µM in [8]. Besides, the TGI in assay [9] was more than 85.2 µM; in assay [10], 66.4 µM; in assay [11], 50.8 µM; in assay [13], more than 26.7 µM.

As to `Cc1ccc(S(=O)(=O)NNC(=O)c2cc(C)ccc2NC(=O)C23CC4CC(CC(C4)C2)C3)cc1`, the TGI in assay [1] is 57.3 µM; in [2], more than 100 µM; in [3] it was more than 100 µM; in [4], 66.8 µM; in assay [5] it was more than 100 µM; in assay [6] it was more than 100 µM. Also, the TGI in [7], in assay [8], in assay [9], in assay [12] and in [13] was more than 100 µM in each case.

As for `COc1cc2nc(-c3ccc4ccccc4c3)[nH]c(=O)c2cc1OC`, the TGI in assay [1], in assay [2], in assay [3], in assay [4], in [5] and in [6] was more than 100 µM each time. In addition, the TGI was more than 100 µM in assay [7]; more than 100 µM in assay [8]; more than 100 µM in [9]; 58.3 µM in [11]; more than 100 µM in assay [13].

Consider `Cc1cccc2c1[nH]c1[nH]c(=O)[nH]c(=O)c12`, for which the TGI in assay [1], in assay [2], in assay [3], in [4], in assay [5] and in assay [6] was more than 100 µM in each case. For the same molecule, the TGI in assay [7] was more than 100 µM; in assay [8], more than 100 µM; in [9] it was more than 100 µM; in assay [11], 85.5 µM; in assay [12], more than 100 µM; in assay [13], more than 100 µM.

For the molecule `N#CC(C#N)=C1C(C#N)=C(N)NC12OCCO2`, the TGI in assay [1], in assay [2], in assay [3], in assay [4], in assay [5] and in assay [6] was more than 100 µM each time. Also, the TGI in [7], in assay [8], in assay [9], in assay [10], in [12] and in [13] was more than 100 µM in each case.

Turning to `O=C(NCc1cccc(C(F)(F)F)c1)c1cc2sccc2nc1C(F)(F)F`, the TGI in assay [1] is 73.7 µM; in assay [2], more than 100 µM; in assay [3], more than 100 µM; in assay [5], more than 100 µM; in assay [6], more than 100 µM; in assay [7], more than 100 µM. Moreover, the TGI in assay [8], in assay [9], in assay [10], in assay [12] and in [13] was more than 100 µM each time.

Take `COc1ccc(N(C)C(=O)N(C)c2ccc([N+](=O)[O-])cc2)cc1`: the TGI in assay [1], in assay [2], in [4], in assay [5], in assay [6] and in [7] was more than 100 µM in each case. Further, the TGI in assay [8] is more than 100 µM; in assay [10], more than 100 µM; in assay [11] it was more than 100 µM; in assay [12], 73.3 µM; in assay [13], more than 100 µM.

The values above are taken from PubChem BioAssay (NCI).
